How the values were obtained:
[1] = target: CSF-1R kinase (Homo sapiens (Human), UniProt P07333); test: CSF-1R kinase assay (AlphaScreen); assay type: biochemical; conditions: class symbol
Method: Inhibition of CSF-1R kinase activity by a test compound disclosed herein was estimated by AlphaScreen (PerkinElmer). […] Reactions were incubated at 30° C. for 45 min and stopped by adding 5 μL of 50 mM EDTA. Analysis of resulting product using an AlphaScreen kit, and counted with Enspire Alpha (PerkinElmer). […] The IC50 values of quinoxaline compounds of this invention against CSF-1R kinase were determined using the GraphPad Prism 5 software.

[2] = target: c-KIT kinase (Homo sapiens (Human), UniProt P10721); test: c-KIT kinase assay (radiometric); assay type: biochemical
Chain of c-KIT kinase (P10721 26-976): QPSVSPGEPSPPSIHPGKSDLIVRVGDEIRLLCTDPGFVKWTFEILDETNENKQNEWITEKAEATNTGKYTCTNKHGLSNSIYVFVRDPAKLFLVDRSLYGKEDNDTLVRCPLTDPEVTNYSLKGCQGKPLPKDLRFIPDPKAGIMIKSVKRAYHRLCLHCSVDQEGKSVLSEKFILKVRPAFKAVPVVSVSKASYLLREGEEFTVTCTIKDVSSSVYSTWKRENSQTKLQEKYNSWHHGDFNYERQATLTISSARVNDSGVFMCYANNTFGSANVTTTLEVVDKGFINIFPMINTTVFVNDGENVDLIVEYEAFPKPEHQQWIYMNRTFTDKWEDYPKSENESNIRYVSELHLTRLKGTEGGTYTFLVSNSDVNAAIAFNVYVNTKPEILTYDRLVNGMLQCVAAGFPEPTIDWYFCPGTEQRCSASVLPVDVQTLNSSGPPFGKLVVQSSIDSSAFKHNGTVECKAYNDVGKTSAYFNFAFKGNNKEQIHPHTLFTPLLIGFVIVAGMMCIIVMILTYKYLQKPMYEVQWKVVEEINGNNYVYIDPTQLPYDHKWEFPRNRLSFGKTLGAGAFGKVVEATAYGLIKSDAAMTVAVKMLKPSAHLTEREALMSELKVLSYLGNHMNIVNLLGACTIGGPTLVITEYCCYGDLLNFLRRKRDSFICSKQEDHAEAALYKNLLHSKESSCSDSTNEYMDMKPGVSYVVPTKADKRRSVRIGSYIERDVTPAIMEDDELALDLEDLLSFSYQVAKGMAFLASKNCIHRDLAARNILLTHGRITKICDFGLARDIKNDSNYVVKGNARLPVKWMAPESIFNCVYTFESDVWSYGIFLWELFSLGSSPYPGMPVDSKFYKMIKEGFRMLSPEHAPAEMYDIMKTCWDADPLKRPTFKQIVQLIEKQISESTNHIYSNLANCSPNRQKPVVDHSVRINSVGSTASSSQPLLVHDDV
Outline: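 Recombinant c-Kit (20 ng) with 2 μg Poly-(Glu4:Tyr1) in MOPS pH 7.0 buffer with MgCl2/MnCl2, 10 μM ATP plus [^33P]-ATP, 4% DMSO final, 60 min at 30° C. Stopped with phosphoric acid, filter-captured and scintillation counted; IC50 from curve fit.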

[3] = target: FLT3 kinase (Homo sapiens (Human), UniProt P36888); test: FLT3 kinase assay (radiometric); assay type: biochemical
Chain of FLT3 kinase (P36888 27-993): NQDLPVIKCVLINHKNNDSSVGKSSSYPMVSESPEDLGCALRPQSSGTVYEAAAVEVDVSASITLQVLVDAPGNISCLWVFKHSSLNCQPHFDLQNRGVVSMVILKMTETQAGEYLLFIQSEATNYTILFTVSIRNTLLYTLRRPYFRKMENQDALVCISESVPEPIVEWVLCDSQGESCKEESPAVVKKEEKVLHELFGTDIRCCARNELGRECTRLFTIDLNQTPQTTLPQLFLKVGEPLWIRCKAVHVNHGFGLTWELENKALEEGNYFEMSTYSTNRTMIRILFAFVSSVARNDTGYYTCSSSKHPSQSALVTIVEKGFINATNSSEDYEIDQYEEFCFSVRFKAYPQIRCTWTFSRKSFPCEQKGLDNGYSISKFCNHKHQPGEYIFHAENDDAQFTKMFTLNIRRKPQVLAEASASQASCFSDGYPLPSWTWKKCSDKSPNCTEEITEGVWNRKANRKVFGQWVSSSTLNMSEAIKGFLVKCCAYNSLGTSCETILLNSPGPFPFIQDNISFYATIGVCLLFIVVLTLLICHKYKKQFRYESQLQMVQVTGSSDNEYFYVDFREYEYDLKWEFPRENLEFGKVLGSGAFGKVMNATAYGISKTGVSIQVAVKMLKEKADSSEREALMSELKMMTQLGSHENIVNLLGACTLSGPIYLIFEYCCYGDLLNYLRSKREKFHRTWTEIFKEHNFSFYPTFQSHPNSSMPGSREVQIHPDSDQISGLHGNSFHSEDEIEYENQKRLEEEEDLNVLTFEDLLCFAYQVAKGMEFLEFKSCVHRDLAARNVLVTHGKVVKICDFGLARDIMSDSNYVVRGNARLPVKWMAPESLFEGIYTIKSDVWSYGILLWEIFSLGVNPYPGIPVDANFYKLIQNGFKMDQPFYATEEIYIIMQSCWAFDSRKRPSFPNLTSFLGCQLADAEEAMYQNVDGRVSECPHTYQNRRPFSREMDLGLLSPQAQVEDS
Outline: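 Recombinant FLT3 (5 ng) phosphorylating poly(Glu4:Tyr1) (2 μg) with 10 μM ATP plus [^33P]-ATP in MOPS pH 7.0 buffer, 4% DMSO final, 60 min at 30° C. Reaction stopped with phosphoric acid, filter-captured and scintillation-counted; IC50 derived from dose-response.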

[4] = target: PDGFRβ kinase (Homo sapiens (Human), UniProt P09619); test: PDGFRβ kinase assay (radiometric); assay type: biochemical
Chain of PDGFRβ kinase (P09619 33-1106): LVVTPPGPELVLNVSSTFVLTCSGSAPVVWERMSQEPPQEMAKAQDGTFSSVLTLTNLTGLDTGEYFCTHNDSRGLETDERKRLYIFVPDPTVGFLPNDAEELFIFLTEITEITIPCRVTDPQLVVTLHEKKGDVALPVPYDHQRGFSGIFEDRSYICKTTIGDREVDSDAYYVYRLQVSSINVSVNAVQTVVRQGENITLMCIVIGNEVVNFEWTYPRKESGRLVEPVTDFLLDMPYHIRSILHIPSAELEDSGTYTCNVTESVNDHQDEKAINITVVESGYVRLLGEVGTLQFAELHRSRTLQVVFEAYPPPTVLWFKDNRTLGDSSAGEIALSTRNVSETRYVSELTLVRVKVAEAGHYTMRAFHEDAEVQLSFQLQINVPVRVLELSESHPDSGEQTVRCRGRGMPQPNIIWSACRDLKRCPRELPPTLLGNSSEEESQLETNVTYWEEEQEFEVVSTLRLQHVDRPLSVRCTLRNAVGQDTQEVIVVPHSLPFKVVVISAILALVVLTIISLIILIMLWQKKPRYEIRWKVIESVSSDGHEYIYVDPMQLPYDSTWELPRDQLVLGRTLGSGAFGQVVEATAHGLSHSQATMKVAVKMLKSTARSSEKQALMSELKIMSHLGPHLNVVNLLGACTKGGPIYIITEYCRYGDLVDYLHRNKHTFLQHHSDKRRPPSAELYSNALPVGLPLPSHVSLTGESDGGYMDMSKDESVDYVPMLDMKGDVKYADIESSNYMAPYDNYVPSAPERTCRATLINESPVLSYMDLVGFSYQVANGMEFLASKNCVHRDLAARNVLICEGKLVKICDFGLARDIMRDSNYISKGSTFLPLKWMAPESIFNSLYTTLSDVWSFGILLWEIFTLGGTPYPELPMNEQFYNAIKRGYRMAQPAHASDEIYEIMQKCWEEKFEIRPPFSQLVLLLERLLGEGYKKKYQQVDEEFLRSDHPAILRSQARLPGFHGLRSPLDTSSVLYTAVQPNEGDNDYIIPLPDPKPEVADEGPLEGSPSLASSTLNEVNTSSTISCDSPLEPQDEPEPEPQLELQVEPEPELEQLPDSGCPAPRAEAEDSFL
Outline: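 Radiometric assay: recombinant PDGFRβ with poly(Glu4:Tyr1) in MOPS pH 7.0 buffer containing Mg2+/Mn2+, 10 μM ATP plus [33P]-ATP, and compound at 4% DMSO final. Incubated 60 min at 30° C, stopped with phosphoric acid, filter-captured and scintillation-counted. IC50 from curve fitting.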

[5] = system: CSF-1-dependent M-NFS-60 mouse myeloid leukemia cell; test: M-NFS-60 cell proliferation assay (CellTiter-96); assay type: cell-based; conditions: Cytotoxicity, M-NFS-60 cells, 72 hours
Outline: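 Growth inhibition was measured as absorbance at 490 nm after 4 h with CellTiter 96 AQueous One reagent. Beforehand, M-NFS-60 cells (2000/well, CSF-1-dependent) were treated with a compound dilution series for 72 h following overnight plating at 37 °C, 5% CO2.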

[6] = system: MV4-11 human acute myeloid leukemia cell with FLT3-ITD mutation; test: MV4-11 cell proliferation assay (CellTiter-96); assay type: cell-based; conditions: Cytotoxicity, MV4-11 cells, 72 hours
Outline: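 Growth inhibition read as absorbance at 490 nm after 4 hours with CellTiter96 AQueous One reagent. Before that, FLT3-ITD-dependent MV4-11 cells (6500 cells/well, overnight at 37° C., 5% CO2) received a rising compound concentration series for 72 hours.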

[7] = system: Kasumi-1 human acute myeloid leukemia cell with c-KIT N822K activating mutation; test: Kasumi-1 cell proliferation assay (CellTiter-96); assay type: cell-based; conditions: Cytotoxicity, Kasumi-1 cells, 72 hours
Outline: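 After 72 h of treatment with a compound dilution series, growth of c-KIT N822K-driven Kasumi-1 cells (64000 per well, plated the day before) was read as 490 nm absorbance. This followed a 4 h incubation with CellTiter96 AQueous One reagent.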

[8] = system: THP-1 human acute monocytic leukemia cell harboring NRAS G12D mutation; test: THP-1 cell proliferation assay (counter screen, CellTiter-96); assay type: cell-based; conditions: Cytotoxicity, THP-1 cells (counter screen), 72 hours
Outline: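 Growth inhibition read as 490 nm absorbance after 4 h with CellTiter96 AQueous One reagent, following 72 h compound exposure at rising concentrations. THP-1 (NRAS G12D) cells plated at 5000 per well and left overnight at 37 °C, 5% CO2 before dosing.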

[9] = system: osteoclast precursors (osteoclast differentiation); test: Osteoclast tartrate-resistant acid phosphatase assay; assay type: cell-based; conditions: 168 h, at 1 μM treatment, 7 days, RANKL and M-CSF, read-out: inhibition activity against osteoclast differentiation
Outline: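 Differentiation inhibition was scored at 1 μM compound in duplicate, using supernatant TRAP activity read at 550 nm with an acid phosphatase kit.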

Chain of CSF-1R kinase (P07333 20-972): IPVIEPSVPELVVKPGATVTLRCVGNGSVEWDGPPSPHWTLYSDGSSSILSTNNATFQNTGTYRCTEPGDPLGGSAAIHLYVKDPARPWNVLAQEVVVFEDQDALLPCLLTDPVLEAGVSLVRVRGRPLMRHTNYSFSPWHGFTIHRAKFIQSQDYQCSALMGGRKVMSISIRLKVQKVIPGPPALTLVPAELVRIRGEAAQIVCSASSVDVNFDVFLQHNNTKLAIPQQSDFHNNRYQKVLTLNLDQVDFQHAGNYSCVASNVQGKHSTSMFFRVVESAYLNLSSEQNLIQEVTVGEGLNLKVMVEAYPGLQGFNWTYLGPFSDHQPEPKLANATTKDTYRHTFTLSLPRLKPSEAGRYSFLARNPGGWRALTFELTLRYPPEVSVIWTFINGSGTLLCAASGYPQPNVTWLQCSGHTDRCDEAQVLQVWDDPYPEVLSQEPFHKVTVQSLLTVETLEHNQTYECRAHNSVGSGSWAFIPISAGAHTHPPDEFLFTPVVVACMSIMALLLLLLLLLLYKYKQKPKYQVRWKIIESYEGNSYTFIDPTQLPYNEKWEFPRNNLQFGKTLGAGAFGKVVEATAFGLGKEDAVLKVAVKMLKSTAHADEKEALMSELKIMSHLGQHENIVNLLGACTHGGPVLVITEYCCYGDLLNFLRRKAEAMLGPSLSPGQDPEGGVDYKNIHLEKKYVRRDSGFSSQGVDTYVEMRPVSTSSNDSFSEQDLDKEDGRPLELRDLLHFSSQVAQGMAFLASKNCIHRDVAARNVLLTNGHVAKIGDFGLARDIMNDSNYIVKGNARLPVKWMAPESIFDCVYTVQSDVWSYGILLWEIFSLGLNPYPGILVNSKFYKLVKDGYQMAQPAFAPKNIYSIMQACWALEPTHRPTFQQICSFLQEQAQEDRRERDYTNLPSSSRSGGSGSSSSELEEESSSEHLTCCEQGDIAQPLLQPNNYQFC

SMILES	IC50 [1] [µM]	IC50 ([2]; class symbol) [µM]	IC50 ([3]; bound) [µM]	IC50 ([4]; bound) [µM]	IC50 ([4]; class symbol) [µM]	IC50 ([2]; bound) [µM]	IC50 ([3]; class symbol) [µM]	IC50 [5] [µM]	IC50 [6] [µM]	IC50 [7] [µM]	IC50 [8] [µM]	inhibition at 1 µM [9] [%]
COc1cc(Nc2ccc3ncc(N4CCOCC4)nc3c2C#N)ccc1OCc1ccc(Cl)cc1 [Example 49, 6-((4-((4-chlorobenzyl)oxy)-3-methoxyphenyl)amino)-3-morpholinoquinoxaline-5-carbonitrile]	< 0.1	< 0.1	> 1	> 1	–	–	–	< 0.3	1 to 10	0.3 to 1	> 10	> 50
CNc1cnc2ccc(Nc3ccc(OCc4ccc(OC)cc4)c(OC)c3)c(C#N)c2n1 [Example 12, 6-((3-methoxy-4-((4-methoxybenzyl)oxy)phenyl)amino)-3-(methylamino)quinoxaline-5-carbonitrile]	< 0.1	< 0.1	> 1	> 1	–	–	–	< 0.3	> 10	0.3 to 1	> 10	> 50
COc1ccc(COc2ccc(Nc3ccc4ncc(N5CCN(C(C)=O)CC5)nc4c3C#N)cc2OC)cc1 [Example 72, 3-(4-acetylpiperazin-1-yl)-6-((3-methoxy-4-((4-methoxybenzyl)oxy)phenyl)amino)quinoxaline-5-carbonitrile]	< 0.1	< 0.1	> 1	–	0.3 to 1	–	–	< 0.3	> 10	< 0.3	> 10	> 50
COc1cc(Nc2ccc3ncc(N4CCOCC4)nc3c2C#N)ccc1OCc1ccc(F)cc1 [Example 40, 6-((4-((4-fluorobenzyl)oxy)-3-methoxyphenyl)amino)-3-morpholinoquinoxaline-5-carbonitrile]	< 0.1	–	> 1	> 1	–	> 1	–	< 0.3	> 10	> 10	> 10	> 50
COc1ccc(COc2ccc(Nc3ccc4ncc(N5CCOCC5)nc4c3C#N)cn2)cc1 [Example 52, 6-((6-((4-methoxybenzyl)oxy)pyridin-3-yl)amino)-3-morpholinoquinoxaline-5-carbonitrile]	< 0.1	0.1 to 0.3	–	> 1	–	–	0.3 to 1	0.3 to 1	< 0.3	0.3 to 1	> 10	> 50
COc1ccc(COc2ccc(Nc3ccc4ncc(N(C)C)nc4c3C#N)cc2OC)cc1 [Example 7, 3-(dimethylamino)-6-((3-methoxy-4-((4-methoxybenzyl)oxy)phenyl)amino)quinoxaline-5-carbonitrile]	< 0.1	< 0.1	> 1	> 1	–	–	–	< 0.3	> 10	< 0.3	> 10	> 50
COc1ccc(COc2ccc(Nc3ccc4ncc(N5CCOCC5)nc4c3C#N)cc2OC)cc1 [Example 16, 6-((3-methoxy-4-((4-methoxybenzyl)oxy)phenyl)amino)-3-morpholinoquinoxaline-5-carbonitrile]	< 0.1	< 0.1	> 1	> 1	–	–	–	< 0.3	> 10	< 0.3	> 10	> 50

Continued, in another order:

IC50 [1] [µM]	IC50 ([2]; class symbol) [µM]	IC50 ([3]; bound) [µM]	IC50 ([4]; bound) [µM]	IC50 ([4]; class symbol) [µM]	IC50 ([2]; bound) [µM]	IC50 ([3]; class symbol) [µM]	SMILES	IC50 [5] [µM]	IC50 [6] [µM]	IC50 [7] [µM]	IC50 [8] [µM]	inhibition at 1 µM [9] [%]
< 0.1	< 0.1	> 1	> 1	–	–	–	COc1cc(Nc2ccc3ncc(N4CCOCC4)nc3c2C(N)=O)ccc1OCc1ccc(C)nc1 [Example 135, 6-((3-methoxy-4-((6-methylpyridin-3-yl)methoxy)phenyl)amino)-3-morpholinoquinoxaline-5-carboxamide]	< 0.3	1 to 10	< 0.3	> 10	> 50
< 0.1	< 0.1	> 1	> 1	–	–	–	COc1cc(Nc2ccc3ncc(N4CCC(N(C)C)CC4)nc3c2C#N)ccc1OCc1cccc(C#N)c1 [Example 84, 6-((4-((3-cyanobenzyl)oxy)-3-methoxyphenyl)amino)-3-(4-(dimethylamino)piperidin-1-yl)quinoxaline-5-carbonitrile]	< 0.3	1 to 10	0.3 to 1	1 to 10	> 50
< 0.1	0.1 to 0.3	> 1	> 1	–	–	–	COc1cc(Nc2ccc3ncc(N4C[C@@H](C)O[C@@H](C)C4)nc3c2C#N)ccc1OCc1ccc(C)nc1 [Example 145, 3-((2S,6R)-2,6-dimethylmorpholino)-6-((3-methoxy-4-((6-methyl-pyridin-3-yl)methoxy)phenyl)amino)quinoxaline-5-carbonitrile]	< 0.3	1 to 10	0.3 to 1	> 10	> 50
< 0.1	0.1 to 0.3	> 1	> 1	–	–	–	COc1ccc(COc2ccc(Nc3ccc4ncc(N5CCN(C6CC6)CC5)nc4c3C#N)cc2OC)cn1 [Example 118, 3-(4-cyclopropylpiperazin-1-yl)-6-((3-methoxy-4-((6-methoxypyridin-3-yl)methoxy)phenyl)amino)quinoxaline-5-carbonitrile]	< 0.3	> 10	1 to 10	> 10	> 50
< 0.1	0.3 to 1	> 1	> 1	–	–	–	COc1cc(N(C)c2ccc3ncc(N4CCOCC4)nc3c2C#N)ccc1OCc1ccc(C)nc1 [Example 129, 6-((3-methoxy-4-((6-methylpyridin-3-yl)methoxy)phenyl)(methyl)amino)-3-morpholinoquinoxaline-5-carbonitrile]	0.3 to 1	1 to 10	1 to 10	> 10	> 50
< 0.1	0.1 to 0.3	> 1	> 1	–	–	–	COc1ccc(COc2ccc(Nc3ccc4ncc(N5CCOCC5)nc4c3C#N)cc2OC)cc1C#N [Example 96, 6-((4-((3-cyano-4-methoxybenzyl)oxy)-3-methoxy-phenyl)amino)-3-morpholinoquinoxaline-5-carbonitrile]	< 0.3	1 to 10	> 10	> 10	> 50
< 0.1	< 0.1	> 1	> 1	–	–	–	COc1ccc(COc2ccc(Nc3ccc4ncc(N5CCN(CCOC(C)=O)CC5)nc4c3C#N)cc2OC)cn1 [Example 74, 2-(4-(8-cyano-7-((3-methoxy-4-((6-methoxypyridin-3-yl)methoxy)phenyl)amino)quinoxalin-2-yl)piperazin-1-yl)ethyl acetate]	< 0.3	1 to 10	0.3 to 1	> 10	> 50
< 0.1	0.1 to 0.3	> 1	> 1	–	–	–	COCc1ccc(COc2ccc(Nc3ccc4ncc(N5CCOCC5)nc4c3C#N)cc2OC)cn1 [Example 107, 6-((3-methoxy-4-((6-(methoxymethyl)pyridin-3-yl)methoxy)phenyl)amino)-3-morpholinoquinoxaline-5-carbonitrile]	< 0.3	1 to 10	0.3 to 1	> 10	> 50
